Reference: patent US20050175599A1, “Process for producing substance” (Kyowa Hakko Kogyo Co., Ltd., priority 2001, published 2005)

Test system: transformant cell line 61-33γ (host YB2/0) producing a chimeric anti-GD3 antibody
Assay: Fed-batch culture of antibody-producing cells in Q10-containing medium (Example 2)
Assay type: cell-based, rat
Conditions: Q10-added culture, 50 μmol/L Q10 dissolved in Tween 80, fed-batch culture 11 days
Method: The following fed-batch culture was performed with transformant cell line 61-33γ (FERM BP-7325) which was obtained by using hybridoma cell line YB2/0 derived from a rat myeloma cell line as a host cell and produces a chimeric anti-GD3 antibody.
In a T-225 cm^2 flask charged with 30 mL of a serum-free medium (Hybridoma-SFM; manufactured by Invitrogen Corporation), the cells were inoculated to a cell density of 3×10^5 cells/mL, followed by stationary culture in a 5%-CO2 incubator at 37° C. for 3 days.
On the completion of culturing, the resulting cells were inoculated in a 1-liter spinner flask (manufactured by Shibata Hario, Co., Ltd.) containing 0.7 liter of Hybridoma-SFM to 3×10^5 cells/ml. While adjusting the liquid culture to pH 7.1 ±0.1 and the dissolved oxygen concentration to 3±0.2 ppm, culturing was carried out at 37° C. for 11 days under the condition of stirring at 50 rpm. Aeration was carried out via a porous polytetrafluoroethylene tube arranged in the spinner flask, and a mixture gas of air, oxygen and carbon dioxide was supplied. Additionally, the pH was controlled by changing the ratio of air and carbon dioxide and by feeding 1 mol/L sodium carbonate solution. Furthermore, the dissolved oxygen concentration was controlled by changing the ratio of air and oxygen. […]

## COC1=C(OC)C(=O)C(C/C=C(\C)CC/C=C(\C)CC/C=C(\C)CC/C=C(\C)CC/C=C(\C)CC/C=C(\C)CC/C=C(\C)CC/C=C(\C)CC/C=C(\C)CCC=C(C)C)=C(C)C1=O [Q10]
Q10-free culture 2.97×10^7
  cumulative number of cells on the completion of culturing: 3.98×10^7 cells/ml×days
Q10-free culture = 100%
  relative specific antibody production rate: 137.1%
